{"source": "paper PMC10485095", "about": "“Structure and enzymatic characterization of CelD endoglucanase from the anaerobic fungus Piromyces finnis” (Applied Microbiology and Biotechnology, 2023)", "biological_target": "T1, CelD GH5 catalytic domain (construct 91–452) (Piromyces finnis, UniProt A0A1Y1V643)", "T1 construct": "gene BCR36DRAFT_398243; third GH5 catalytic domain of 136 kDa three-GH5, double-dockerin CelD; E. coli BL21-Gold(DE3), pMCSG68; N-terminal His/Strep tag cut by TEV for crystallisation; two molecules per asymmetric unit", "T1 sequence (A0A1Y1V643 entry or part of it E900A)": "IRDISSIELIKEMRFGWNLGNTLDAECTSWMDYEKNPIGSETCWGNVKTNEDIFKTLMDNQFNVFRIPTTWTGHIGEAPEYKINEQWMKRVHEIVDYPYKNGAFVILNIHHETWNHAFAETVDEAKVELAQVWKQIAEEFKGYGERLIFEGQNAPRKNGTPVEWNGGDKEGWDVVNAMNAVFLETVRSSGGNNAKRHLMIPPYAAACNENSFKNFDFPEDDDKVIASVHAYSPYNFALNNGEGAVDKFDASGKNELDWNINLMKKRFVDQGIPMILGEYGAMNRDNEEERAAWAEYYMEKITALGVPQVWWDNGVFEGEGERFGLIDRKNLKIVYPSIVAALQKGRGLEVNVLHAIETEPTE", "assay": "X-ray crystallography, co-crystal, […] Å", "assay_type": "binding", "conditions": "inactive acid/base mutant; 10 mM cellotriose added; bound at -3, -2, -1 subsites of active site; 0.1 M sodium acetate, 24% PEG 6000, 16 °C"}
{"smiles": "OC[C@H]1O[C@@H](O[C@H]2[C@H](O)[C@@H](O)[C@H](O[C@H]3[C@H](O)[C@@H](O)C(O)O[C@@H]3CO)O[C@@H]2CO)[C@H](O)[C@@H](O)[C@@H]1O", "note": "(stereo partly shown) [cellotriose]", "values": [{"measurement": "X-ray crystallography, co-crystal, 1.8 Å", "value": "The complex between the E154A mutant protein and cellotriose was formed by adding the ligand"}]}
